Key:
[1] = Hydrolytic rate in cynomolgus monkey hepatic microsomes assessed as 2-(4-((5,6-diphenylpyrazin-2-yl)(isopropyl)amino)butoxy)acetic acid production per mg of protein at 10 uM; format: ADME, Macaca fascicularis, Liver
[2] = test system: Liver microsomes; assay: Hydrolytic rate in human hepatic microsomes assessed as 2-(4-((5,6-diphenylpyrazin-2-yl)(isopropyl)amino)butoxy)acetic acid production per mg of protein at 10 uM; format: ADME, Microsome
[3] = test system: Cynomolgus monkey; assay: Cmax in cynomolgus monkey assessed as 2-(4-((5,6-diphenylpyrazin-2-yl)(isopropyl)amino)butoxy)acetic acid level at 1 mg/kg, po; format: ADME, organism-based, Macaca fascicularis; design: dose 1 mg/kg, route oral; details: in vivo
[4] = test system: Cynomolgus monkey; assay: AUC (0 to 24 hrs) in cynomolgus monkey assessed as 2-(4-((5,6-diphenylpyrazin-2-yl)(isopropyl)amino)butoxy)acetic acid at 1 mg/kg, po; format: ADME, organism-based, Macaca fascicularis, Plasma; design: time < 24 hr, dose 1 mg/kg, route oral; details: in vivo
[5] = test system: Cynomolgus monkey; assay: Tmax in cynomolgus monkey assessed as 2-(4-((5,6-diphenylpyrazin-2-yl)(isopropyl)amino)butoxy)acetic acid level at 1 mg/kg, po; format: ADME, organism-based, Macaca fascicularis; design: dose 1 mg/kg, route oral; details: in vivo
[6] = test system: Cynomolgus monkey; assay: Half life in cynomolgus monkey assessed as 2-(4-((5,6-diphenylpyrazin-2-yl)(isopropyl)amino)butoxy)acetic acid at 1 mg/kg, po; format: ADME, organism-based, Macaca fascicularis; design: dose 1 mg/kg, route oral; details: in vivo
[7] = Hydrolytic rate in Beagle dog hepatic microsomes assessed as 2-(4-((5,6-diphenylpyrazin-2-yl)(isopropyl)amino)butoxy)acetic acid production per mg of protein at 10 uM; format: ADME, Canis lupus familiaris, Liver
[8] = test system: Plasma; assay: Hydrolytic rate in Sprague-Dawley rat plasma assessed as 2-(4-((5,6-diphenylpyrazin-2-yl)(isopropyl)amino)butoxy)acetic acid production per mg of protein at 10 uM; format: ADME, cell-free
[9] = Hydrolytic rate in cynomolgus monkey hepatic microsomes assessed as 2-(4-((5,6-diphenylpyrazin-2-yl)(isopropyl)amino)butoxy)acetic acid production in presence of 100 uM PMSF relative to control; format: ADME, Macaca fascicularis, Liver; design: scale not given: the % may be the effect or the level left
[10] = Hydrolytic rate in cynomolgus monkey hepatic microsomes assessed as 2-(4-((5,6-diphenylpyrazin-2-yl)(isopropyl)amino)butoxy)acetic acid production in presence of 10 uM PMSF relative to control; format: ADME, Macaca fascicularis, Liver; design: scale not given: the % may be the effect or the level left
[11] = test system: Liver microsomes; assay: Hydrolytic rate in Sprague-Dawley rat hepatic microsomes assessed as 2-(4-((5,6-diphenylpyrazin-2-yl)(isopropyl)amino)butoxy)acetic acid production per mg of protein at 10 uM; format: ADME, Microsome
[12] = Hydrolytic rate in cynomolgus monkey hepatic microsomes assessed as 2-(4-((5,6-diphenylpyrazin-2-yl)(isopropyl)amino)butoxy)acetic acid production in presence of 1000 uM PMSF relative to control; format: ADME, Macaca fascicularis, Liver; design: scale not given: the % may be the effect or the level left

Row | Structure (SMILES) | Activity [1] [nmol/min] | Activity [2] [nmol/min] | Cmax [3] [ng/mL] | AUC [4] [ng·h/mL] | Tmax [5] [h] | t1/2 [6] [h] | Activity [7] [nmol/min] | Activity [8] [nmol/min] | Activity [9] [%] | Activity [10] [%] | Activity [11] [nmol/min] | Activity [12] [%]
1 | CC(C)N(CCCCOCC(=O)NS(=O)(=O)c1ccccc1)c1cnc(-c2ccccc2)c(-c2ccccc2)n1 | 0.711 | 0.017 |  |  |  |  |  |  |  |  |  | 
2 | CC(C)N(CCCCOCC(=O)NS(=O)(=O)C(C)C)c1cnc(-c2ccccc2)c(-c2ccccc2)n1 | 0.152 | 0.012 | 13 | 170 | 10 | 14.5 |  |  |  |  |  | 
3 | CC(C)N(CCCCOCC(=O)NS(N)(=O)=O)c1cnc(-c2ccccc2)c(-c2ccccc2)n1 | 0.112 | 0.03 | 20 | 374 | 6 |  |  |  |  |  |  | 
4 | CC(C)N(CCCCOCC(=O)NS(=O)(=O)N1CCOCC1)c1cnc(-c2ccccc2)c(-c2ccccc2)n1 | 0.208 | 0.015 |  |  |  |  |  |  |  |  |  | 
5 | CC(C)N(CCCCOCC(=O)NS(=O)(=O)C(F)(F)F)c1cnc(-c2ccccc2)c(-c2ccccc2)n1 | 0.06 | 0.024 | 31 | 308 | 4 | 8.5 |  |  |  |  |  | 
6 | CC(C)N(CCCCOCC(=O)NS(=O)(=O)c1cccs1)c1cnc(-c2ccccc2)c(-c2ccccc2)n1 | 0.468 | 0.008 |  |  |  |  |  |  |  |  |  | 
7 | CC(C)N(CCCCOCC(=O)NS(C)(=O)=O)c1cnc(-c2ccccc2)c(-c2ccccc2)n1 [SELEXIPAG] | 0.057 | 0.019 | 35 | 859 | 14 | 10.7 | 0.03 | 0.5 | 0 | 21.4 | 0.09 | 0

From ChEMBL document CHEMBL1140507, “Synthesis and evaluation of N-acylsulfonamide and N-acylsulfonylurea prodrugs of a prostacyclin receptor agonist” (Bioorg Med Chem, 2007)
